Assay [1] has as its target T1, Carbonic anhydrase 1 (Homo sapiens, UniProt P00915). The assay is described as follows: Inhibition of human carbonic anhydrase 1 incubated for 15 mins prior to testing by CO2 hydration-based stopped flow assay.
Target sequence in this assay (P00915 whole entry): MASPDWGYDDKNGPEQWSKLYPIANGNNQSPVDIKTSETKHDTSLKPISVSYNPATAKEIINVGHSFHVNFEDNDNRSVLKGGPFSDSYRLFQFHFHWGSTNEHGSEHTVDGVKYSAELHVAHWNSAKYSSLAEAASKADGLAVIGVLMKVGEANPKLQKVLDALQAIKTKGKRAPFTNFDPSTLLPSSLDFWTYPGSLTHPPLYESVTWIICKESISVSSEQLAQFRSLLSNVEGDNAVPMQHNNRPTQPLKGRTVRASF
Assay [2] concerns the target T2, Carbonic anhydrase 9 (Homo sapiens, UniProt Q16790). The experiment in a line: Potency index, ratio of Ki for acetazolamide to Ki for test compound for inhibition of human carbonic anhydrase 9.
Another assay addresses Carbonic anhydrase 12 (Homo sapiens, UniProt O43570). The experiment in a line: Inhibition of human carbonic anhydrase 12 incubated for 15 mins prior to testing by CO2 hydration-based stopped flow assay.
Assay [3] concerns the target T2, Carbonic anhydrase 9. The assay is described as follows: Inhibition of human carbonic anhydrase 9 incubated for 15 mins prior to testing by CO2 hydration-based stopped flow assay.
The next assay deals with Carbonic anhydrase 2 (Homo sapiens, UniProt P00918). The experiment in a line: Inhibition of human carbonic anhydrase 2 incubated for 15 mins prior to testing by CO2 hydration-based stopped flow assay.
Assay [4] has as its target T1, Carbonic anhydrase 1. The assay is described as follows: Potency index, ratio of Ki for acetazolamide to Ki for test compound for inhibition of human carbonic anhydrase 1.
Target sequence in this assay (P00915 2-261 limits assumed): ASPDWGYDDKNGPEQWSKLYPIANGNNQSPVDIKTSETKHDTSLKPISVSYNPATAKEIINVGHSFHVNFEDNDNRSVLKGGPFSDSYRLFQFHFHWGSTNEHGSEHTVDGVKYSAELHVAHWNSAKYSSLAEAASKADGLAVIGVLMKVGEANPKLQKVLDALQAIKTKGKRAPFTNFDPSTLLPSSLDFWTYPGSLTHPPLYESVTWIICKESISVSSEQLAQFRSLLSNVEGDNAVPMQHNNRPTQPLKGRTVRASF

Carbonic anhydrase 12, sequence (O43570 whole entry): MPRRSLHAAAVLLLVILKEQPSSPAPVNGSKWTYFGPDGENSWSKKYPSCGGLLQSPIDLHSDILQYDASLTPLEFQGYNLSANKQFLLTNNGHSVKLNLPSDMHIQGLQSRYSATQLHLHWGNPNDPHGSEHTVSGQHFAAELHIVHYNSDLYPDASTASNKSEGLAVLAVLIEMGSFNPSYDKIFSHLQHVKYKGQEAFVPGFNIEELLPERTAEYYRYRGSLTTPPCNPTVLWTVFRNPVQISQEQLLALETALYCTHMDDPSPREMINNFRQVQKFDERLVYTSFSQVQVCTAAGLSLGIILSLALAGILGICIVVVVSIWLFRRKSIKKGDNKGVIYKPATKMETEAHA

As for `NS(=O)(=O)c1ccc(-c2cn(S(=O)(=O)c3ccccc3)c3ccccc23)cc1`, the inhibition constant Ki was determined as 83.6 nM at Carbonic anhydrase 1 [1], 96.7 nM on Carbonic anhydrase 12, 0.24 nM at Carbonic anhydrase 9 [3] and 0.68 nM on Carbonic anhydrase 2. Also, the Ratio Ki on Carbonic anhydrase 9 [2] was found to be 100.

Take `NS(=O)(=O)c1ccc(-c2cc3ccccc3n2S(=O)(=O)c2ccccc2)cc1`: the Ki was greater than 10000 nM on Carbonic anhydrase 1 [1], 33.9 nM at Carbonic anhydrase 12, 100 nM on Carbonic anhydrase 9 [3] and 11.7 nM on Carbonic anhydrase 2.

As to `COc1cc(-c2ccc(S(N)(=O)=O)cc2)cc(OC)c1OC`, the Ki amounted to 9520 nM on Carbonic anhydrase 1 [1], 32.2 nM at Carbonic anhydrase 12, 259 nM on Carbonic anhydrase 9 [3] and 19.1 nM on Carbonic anhydrase 2.

As for `CC(C)c1ccccc1-c1ccc(S(N)(=O)=O)cc1`, the Ki stood at 146 nM on Carbonic anhydrase 1 [1], 0.58 nM at Carbonic anhydrase 12 and 0.98 nM at Carbonic anhydrase 2.

As for `NS(=O)(=O)c1ccc(-c2cccc(-c3ccc(S(N)(=O)=O)cc3)c2)cc1`, the inhibitory constant (Ki) is greater than 10000 nM on Carbonic anhydrase 1 [1], 55.6 nM at Carbonic anhydrase 12, 276 nM at Carbonic anhydrase 9 [3] and 397 nM on Carbonic anhydrase 2.

As for `NS(=O)(=O)c1ccc(-c2cc3ccccc3s2)cc1`, the Ki on Carbonic anhydrase 1 [1] is 370 nM; at Carbonic anhydrase 12, greater than 10000 nM; on Carbonic anhydrase 9 [3], 0.21 nM; on Carbonic anhydrase 2, 0.84 nM. Moreover, the Ratio Ki on Carbonic anhydrase 9 [2] came to 100.

`COC(=O)c1cccc(-c2ccc(S(N)(=O)=O)cc2)c1`: the Ki was determined as 6960 nM on Carbonic anhydrase 1 [1], 19.5 nM on Carbonic anhydrase 12, 159 nM on Carbonic anhydrase 9 [3] and 14.2 nM on Carbonic anhydrase 2.

`NS(=O)(=O)c1ccc(-c2ccc3[nH]ccc3c2)cc1`: the results for the Ratio Ki on Carbonic anhydrase 1 [4] and at Carbonic anhydrase 9 [2] were 10 and 100, respectively. Further, the Ki at Carbonic anhydrase 1 [1] was 24.5 nM; at Carbonic anhydrase 12, 65 nM; at Carbonic anhydrase 9 [3], 0.17 nM; at Carbonic anhydrase 2, 0.95 nM.

Consider `Nc1ccc(-c2ccc(S(N)(=O)=O)cc2)cc1`, for which the Ki on Carbonic anhydrase 1 [1] is 3700 nM; at Carbonic anhydrase 12 it was 36.5 nM; on Carbonic anhydrase 2, 12.3 nM.

With `NS(=O)(=O)c1ccc(-c2cccc(C=O)c2)cc1`, the figures for the inhibition constant (Ki) on Carbonic anhydrase 1 [1], at Carbonic anhydrase 12 and on Carbonic anhydrase 2 were 1180 nM, 0.58 nM and 2.1 nM, respectively.

In the case of `NS(=O)(=O)c1ccc(-c2cc3ccccc3[nH]2)cc1`, the Ki was determined as 656 nM at Carbonic anhydrase 1 [1], 5.6 nM on Carbonic anhydrase 12, 124 nM on Carbonic anhydrase 9 [3] and 10.2 nM on Carbonic anhydrase 2.

For `N#Cc1ccc(-c2ccc(S(N)(=O)=O)cc2)cc1`, the Ki amounted to 1340 nM at Carbonic anhydrase 1 [1], 14.2 nM on Carbonic anhydrase 12, 228 nM at Carbonic anhydrase 9 [3] and 1.2 nM on Carbonic anhydrase 2.

With `NS(=O)(=O)c1ccc(-c2cnc3ccccc3c2)cc1`, the Ratio Ki on Carbonic anhydrase 1 [4] is 6; at Carbonic anhydrase 9 [2] it was 100. Besides, the Ki on Carbonic anhydrase 1 [1] is 35.2 nM; on Carbonic anhydrase 12 it was 760 nM; at Carbonic anhydrase 9 [3], 0.18 nM; at Carbonic anhydrase 2, 2.5 nM.

For the molecule `Cc1ccccc1-c1ccc(S(N)(=O)=O)cc1`, the Ki on Carbonic anhydrase 1 [1] came to 3500 nM; at Carbonic anhydrase 12, 47 nM; on Carbonic anhydrase 2 it was 1.2 nM.

For `NS(=O)(=O)c1ccc(-c2ccc3c(c2)OCO3)cc1`, the Ki was greater than 10000 nM at Carbonic anhydrase 1 [1], 5.2 nM on Carbonic anhydrase 12, 258 nM at Carbonic anhydrase 9 [3] and 18 nM at Carbonic anhydrase 2.

`NS(=O)(=O)c1ccc(-c2ccc3ccccc3c2)cc1`: the Ki at Carbonic anhydrase 1 [1] is 1000 nM; on Carbonic anhydrase 12, greater than 10000 nM; at Carbonic anhydrase 9 [3], 0.22 nM; on Carbonic anhydrase 2, 0.69 nM. Also, the Ratio Ki on Carbonic anhydrase 9 [2] came to 100.

Consider `NS(=O)(=O)c1ccc(-c2ccc(-c3ccc(Br)cc3)cc2)cc1`, for which the inhibition constant Ki at Carbonic anhydrase 1 [1] is greater than 10000 nM; on Carbonic anhydrase 12 it was 54.2 nM; on Carbonic anhydrase 9 [3] it was 224 nM; on Carbonic anhydrase 2 it was 764 nM.

As for `COc1ccc2[nH]c(-c3ccc(S(N)(=O)=O)cc3)cc2c1`, the Ki on Carbonic anhydrase 1 [1] amounted to 2640 nM; on Carbonic anhydrase 12 it was 415 nM; on Carbonic anhydrase 9 [3] it was 156 nM; at Carbonic anhydrase 2 it was 764 nM.

In the case of `NS(=O)(=O)c1ccc(-c2cccnc2)cc1`, the Ki at Carbonic anhydrase 1 [1] was determined as 2400 nM; at Carbonic anhydrase 12, 20.3 nM; at Carbonic anhydrase 9 [3] it was 78.1 nM; on Carbonic anhydrase 2 it was 16.6 nM.

Take `NS(=O)(=O)c1ccc(-c2cc3ccccc3o2)cc1`: the Ki was 185 nM on Carbonic anhydrase 1 [1], greater than 10000 nM at Carbonic anhydrase 12, 0.37 nM at Carbonic anhydrase 9 [3] and 0.7 nM at Carbonic anhydrase 2. Further, at Carbonic anhydrase 9 [2], the Ratio Ki was determined as 100.

On to `NS(=O)(=O)c1ccc(-c2ccccc2)cc1`, for which the Ratio Ki on Carbonic anhydrase 1 [4] was found to be 6; on Carbonic anhydrase 9 [2], 100. For the same molecule, the Ki at Carbonic anhydrase 1 [1] came to 41.5 nM; on Carbonic anhydrase 12 it was 92.7 nM; on Carbonic anhydrase 9 [3], 0.21 nM; on Carbonic anhydrase 2, 0.79 nM.

For the molecule `Nc1cccc(-c2ccc(S(N)(=O)=O)cc2)c1`, the Ki at Carbonic anhydrase 1 [1] was 2340 nM; at Carbonic anhydrase 12, 4.3 nM; on Carbonic anhydrase 9 [3] it was 126 nM; at Carbonic anhydrase 2 it was 9.3 nM.

As for `NS(=O)(=O)c1ccc(-c2ccc(-c3ccc(S(N)(=O)=O)cc3)cc2)cc1`, the Ki on Carbonic anhydrase 1 [1] was greater than 10000 nM; at Carbonic anhydrase 12, 4.9 nM; on Carbonic anhydrase 9 [3], 240 nM; at Carbonic anhydrase 2, 324 nM.

Take `NS(=O)(=O)c1ccc(-c2ccc(Cn3cccn3)cc2)cc1`: the Ki is 6970 nM at Carbonic anhydrase 1 [1], 38.3 nM at Carbonic anhydrase 12, 216 nM on Carbonic anhydrase 9 [3] and 11.1 nM on Carbonic anhydrase 2.

For the origin of these results see ChEMBL document CHEMBL3763133, “4-Arylbenzenesulfonamides as Human Carbonic Anhydrase Inhibitors (hCAIs): Synthesis by Pd Nanocatalyst-Mediated Suzuki-Miyaura Reaction, Enzyme Inhibition, and X-ray Crystallographic Studies” (J Med Chem, 2016).
